Measurements taken from patent publication US12077503B2, “Substituted cyclic amides and their use as herbicides” (FMC CORPORATION, priority 2015, dated 2024).
Read-outs that look alike come from different tables or passages of the source.

Legend:
Type in all cases: in vivo
[1] = test system: barnyardgrass (Echinochloa crus-galli); assay: Test B flooded paddy test; details: Echinochloa crus-galli, 250 g ai/ha, Flood, read-out: Barnyardgrass plant response rating
In short: (§1)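 Visual ratings (0 none to 100 complete control) are relative to untreated plants, taken 13–15 d after treatment in a greenhouse. Test material went straight into floodwater standing 3 cm above the soil, kept constant, on plants at the 2-leaf stage.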

[2] = test system: ducksalad (Heteranthera limosa); assay: Test B flooded paddy test; details: Heteranthera limosa, 250 g ai/ha, Flood, read-out: Ducksalad plant response rating
In short: as §1

[3] = test system: sedge, umbrella (small-flower umbrella sedge, Cyperus difformis); assay: Test B flooded paddy test; details: Cyperus difformis, Flood, 250 g ai/ha
In short: as §1

rice (Oryra sativa) = assay: Test B flooded paddy test; details: Oryza sativa, 250 g ai/ha, Flood, read-out: Rice plant response rating
In short: as §1

Kochia (Kochia scoparia) [4] = assay: Test A postemergence; details: Bassia scoparia, post-emergence, 240 h; for pest or weed control at 125 g/ha: 125 g ai/ha
In short: (§2)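 Visual injury scores from 0, no effect, to 100, complete control, were assigned versus untreated controls roughly 10 d after treatment in the greenhouse. Test chemicals, formulated with surfactant in a non-phytotoxic solvent, were applied to planted seeds as a preemergence soil spray or postemergence to one- to two-leaf plants 2 to 10 cm tall, in loam–sand soil.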

[5] = test system: pigweed (Amaranthus retroflexus); assay: Test A postemergence; details: Amaranthus retroflexus, post-emergence, 240 h; for pest or weed control at 125 g/ha: 125 g ai/ha
In short: as §2

[6] = test system: Galium (catchweed bedstraw, Galium aparine); assay: Test A postemergence; details: Galium, post-emergence, 240 h; for pest or weed control at 125 g/ha: 125 g ai/ha
In short: as §2

corn (Zea mays) = assay: Test A postemergence; details: Zea mays, post-emergence, 240 h; for Corn plant response rating (crop injury, 0 = no effect, 100 = complete kill) at 125 g/ha: postemergence, visual injury after approximately 10 d
In short: as §2

[7] = test system: barnyardgrass (Echinochloa crus-galli); assay: Test A preemergence; details: Echinochloa crus-galli, pre-emergence, 240 h; for pest or weed control at 500 g/ha: 500 g ai/ha; for pest or weed control at 125 g/ha: 125 g ai/ha
In short: as §2

Kochia (Kochia scoparia) [8] = assay: Test A preemergence; details: Bassia scoparia, pre-emergence, 240 h; for pest or weed control at 500 g/ha: 500 g ai/ha; for pest or weed control at 125 g/ha: 125 g ai/ha
In short: as §2

[9] = test system: giant foxtail (Setaria faberii); assay: Test A preemergence; details: Setaria faberi, pre-emergence, 240 h; for pest or weed control at 500 g/ha: 500 g ai/ha; for pest or weed control at 125 g/ha: 125 g ai/ha
In short: as §2

[10] = test system: ragweed (common ragweed, Ambrosia elatior); assay: Test A preemergence; details: Ambrosia artemisiifolia, pre-emergence, 240 h; for pest or weed control at 500 g/ha: 500 g ai/ha; for pest or weed control at 125 g/ha: 125 g ai/ha
In short: as §2

[11] = test system: pigweed (Amaranthus retroflexus); assay: Test A preemergence; details: Amaranthus retroflexus, pre-emergence, 240 h; for pest or weed control at 500 g/ha: 500 g ai/ha; for pest or weed control at 125 g/ha: 125 g ai/ha
[12] = test system: ryegrass, Italian (Italian ryegrass, Lolium multiflorum); assay: Test A preemergence; details: Lolium multiflorum, pre-emergence, 240 h, read-out: Plant response rating, Ryegrass, Italian; for pest or weed control at 125 g/ha: 125 g ai/ha
In short: as §2

[13] = 0 to 100 scale where 0 is no effect and 100 is complete control
[14] = scale of 0 to 100 where 0 is no effect and 100 is complete control
[15] = scale of 0 to 100 where 0 is no effect and 100 is complete control, read-out: Sedge, Umbrella plant response rating
[16] = postemergence, visual injury after approximately 10 d, 0 to 100 scale (0 no effect, 100 complete control), read-out: Plant response rating, Kochia
[17] = postemergence, visual injury after approximately 10 d, 0 to 100 scale (0 no effect, 100 complete control), read-out: Plant response rating, Pigweed
[18] = postemergence, visual injury after approximately 10 d, 0 to 100 scale (0 no effect, 100 complete control), read-out: Plant response rating, Galium
[19] = 125 g ai/ha, 0 to 100 scale (0 no effect, 100 complete control)
[20] = preemergence, visual rating after approx. 10 d, 0 to 100 scale where 0 is no effect and 100 is complete control, read-out: Plant response rating, Barnyardgrass
[21] = preemergence, 0 to 100 scale, 0 = no effect, 100 = complete control, read-out: Plant response rating, Barnyardgrass
[22] = preemergence, visual rating after approx. 10 d, 0 to 100 scale where 0 is no effect and 100 is complete control, read-out: Plant response rating, Kochia
[23] = preemergence, visual rating after approx. 10 d, 0 to 100 scale where 0 is no effect and 100 is complete control, read-out: Plant response rating, Foxtail, Giant
[24] = preemergence, 0 to 100 scale, 0 = no effect, 100 = complete control, read-out: Plant response rating, Foxtail, Giant
[25] = preemergence, visual rating after approx. 10 d, 0 to 100 scale where 0 is no effect and 100 is complete control, read-out: Plant response rating, Ragweed
[26] = preemergence, 0 to 100 scale, 0 = no effect, 100 = complete control, read-out: Plant response rating, Ragweed
[27] = preemergence, visual rating after approx. 10 d, 0 to 100 scale where 0 is no effect and 100 is complete control, read-out: Plant response rating, Pigweed
[28] = preemergence, 0 to 100 scale, 0 = no effect, 100 = complete control, read-out: Plant response rating, Pigweed
[29] = preemergence, visual rating after approx. 10 d, 0 to 100 scale where 0 is no effect and 100 is complete control

CN1C[C@H](c2ccc3c(c2)CCO3)[C@@H](C(=O)Nc2cccc(F)c2F)C1=O [Compound 1324]
pest or weed control at 250 g/ha [1, 13]: 75% | pest or weed control at 250 g/ha [2, 13]: 65% | pest or weed control at 250 g/ha ([3]; 360 h, visually evaluated after 13 to 15 d, read-out: Plant response rating, Sedge, Umbrella (0 to 100 scale where 0 is no effect and 100 is complete control)): 0% | pest or weed control at 250 g/ha (rice (Oryra sativa); [13]): 0% | pest or weed control at 125 g/ha (Kochia (Kochia scoparia) [4]; Postemergence, visual rating about 10 d after treatment, read-out: Kochia plant response rating (0 to 100 scale)): 30% | pest or weed control at 500 g/ha (Kochia (Kochia scoparia) [4]; Postemergence, 500 g ai/ha, visual injury, 0 to 100 scale (0 no effect, 100 complete control), approx. 10 d, read-out: Plant response rating, Kochia): 70% | pest or weed control at 125 g/ha ([5]; Postemergence, visual rating about 10 d after treatment, read-out: Pigweed plant response rating (0 to 100 scale)): 0% | pest or weed control at 500 g/ha ([5]; Postemergence, 500 g ai/ha, visual injury, 0 to 100 scale (0 no effect, 100 complete control), approx. 10 d, read-out: Plant response rating, Pigweed): 20% | pest or weed control at 125 g/ha ([6]; Postemergence, visual rating about 10 d after treatment, read-out: Galium plant response rating (0 to 100 scale)): 30% | pest or weed control at 500 g/ha ([6]; Postemergence, 500 g ai/ha, visual injury, 0 to 100 scale (0 no effect, 100 complete control), approx. 10 d, read-out: Plant response rating, Galium): 50% | plant injury at 125 g/ha (corn (Zea mays); 125 g ai/ha, Postemergence, visual rating about 10 d after treatment, read-out: Corn plant response rating (0 to 100 scale)): 60% | Corn plant response rating (crop injury, 0 = no effect, 100 = complete kill) at 500 g/ha (corn (Zea mays); Postemergence, 500 g ai/ha, visual injury, 0 to 100 scale (0 no effect, 100 complete control), approx. 10 d): 80% | pest or weed control at 500 g/ha ([7]; preemergence, 0 to 100 scale where 0 is no effect and 100 is complete control, read-out: Barnyardgrass plant response rating): 100% | pest or weed control at 125 g/ha ([7]; Preemergence, 0 to 100 scale (0 no effect, 100 complete control), read-out: Plant response rating, Barnyardgrass): 90% | pest or weed control at 500 g/ha (Kochia (Kochia scoparia) [8]; preemergence, 0 to 100 scale where 0 is no effect and 100 is complete control, read-out: Kochia plant response rating): 90% | pest or weed control at 125 g/ha (Kochia (Kochia scoparia) [8]; Preemergence, 0 to 100 scale (0 no effect, 100 complete control), read-out: Plant response rating, Kochia): 90% | pest or weed control at 500 g/ha ([9]; preemergence, 0 to 100 scale where 0 is no effect and 100 is complete control, read-out: Foxtail, Giant plant response rating): 100% | pest or weed control at 125 g/ha ([9]; Preemergence, 0 to 100 scale (0 no effect, 100 complete control), read-out: Plant response rating, Foxtail, Giant): 90% | pest or weed control at 500 g/ha ([10]; preemergence, 0 to 100 scale where 0 is no effect and 100 is complete control, read-out: Ragweed plant response rating): 90% | pest or weed control at 125 g/ha ([10]; Preemergence, 0 to 100 scale (0 no effect, 100 complete control), read-out: Plant response rating, Ragweed): 90% | pest or weed control at 500 g/ha ([11]; preemergence, 0 to 100 scale where 0 is no effect and 100 is complete control, read-out: Pigweed plant response rating): 40% | pest or weed control at 125 g/ha ([11]; Preemergence, 0 to 100 scale (0 no effect, 100 complete control), read-out: Plant response rating, Pigweed): 0% | pest or weed control at 125 g/ha ([12]; Preemergence, 0 to 100 scale (0 no effect, 100 complete control)): 20%

O=C1NC[C@H](c2csc3ccccc23)[C@H]1C(=O)Nc1cccc(F)c1F [Compound 751]
pest or weed control at 250 g/ha [1, 14]: 40% | pest or weed control at 250 g/ha [2, 14]: 100% | pest or weed control at 250 g/ha [3, 15]: 0% | pest or weed control at 250 g/ha (rice (Oryra sativa); [14]): 30% | pest or weed control at 125 g/ha (Kochia (Kochia scoparia) [4]; [16]): 0% | pest or weed control at 125 g/ha [5, 17]: 0% | pest or weed control at 125 g/ha [6, 18]: 40% | Corn plant response rating (crop injury, 0 = no effect, 100 = complete kill) at 125 g/ha (corn (Zea mays); [19]): 0% | pest or weed control at 125 g/ha [7, 20]: 90% | pest or weed control at 500 g/ha [7, 21]: 90% | pest or weed control at 125 g/ha (Kochia (Kochia scoparia) [8]; [22]): 20% | pest or weed control at 125 g/ha [9, 23]: 80% | pest or weed control at 500 g/ha [9, 24]: 90% | pest or weed control at 125 g/ha [10, 25]: 20% | pest or weed control at 500 g/ha [10, 26]: 40% | pest or weed control at 125 g/ha [11, 27]: 0% | pest or weed control at 500 g/ha [11, 28]: 0% | pest or weed control at 125 g/ha [12, 29]: 0% | pest or weed control at 500 g/ha ([12]; 500 g ai/ha, preemergence, 0 to 100 scale, 0 = no effect, 100 = complete control): 20%

COc1cc([C@H]2CN(C)C(=O)[C@@H]2C(=O)Nc2ccccc2SC)ccc1C(F)(F)F [Compound 769]
pest or weed control at 250 g/ha [1, 14]: 0% | pest or weed control at 250 g/ha [2, 14]: 80% | pest or weed control at 250 g/ha [3, 15]: 0% | pest or weed control at 250 g/ha (rice (Oryra sativa); [14]): 15% | pest or weed control at 125 g/ha (Kochia (Kochia scoparia) [4]; [16]): 0% | pest or weed control at 125 g/ha [5, 17]: 0% | pest or weed control at 125 g/ha [6, 18]: 50% | Corn plant response rating (crop injury, 0 = no effect, 100 = complete kill) at 125 g/ha (corn (Zea mays); [19]): 0% | pest or weed control at 125 g/ha [7, 20]: 70% | pest or weed control at 500 g/ha [7, 21]: 100% | pest or weed control at 125 g/ha (Kochia (Kochia scoparia) [8]; [22]): 30% | pest or weed control at 500 g/ha (Kochia (Kochia scoparia) [8]; preemergence, 0 to 100 scale, 0 = no effect, 100 = complete control, read-out: Plant response rating, Kochia): 70% | pest or weed control at 125 g/ha [9, 23]: 90% | pest or weed control at 500 g/ha [9, 24]: 100% | pest or weed control at 125 g/ha [10, 25]: 30% | pest or weed control at 500 g/ha [10, 26]: 70% | pest or weed control at 125 g/ha [11, 27]: 30% | pest or weed control at 500 g/ha [11, 28]: 80% | pest or weed control at 125 g/ha [12, 29]: 0%
